# Assay results published in the supplement of paper PMC10307832.
# Compound: COc1cc([C@@H]2c3cc4c(cc3[C@@H](O[C@@H]3O[C@@H]5CO[C@@H](C)O[C@H]5[C@H](O)[C@H]3O)[C@H]3COC(=O)[C@H]23)OCO4)cc(OC)c1O [Etoposide] + COc1cc2c(Oc3ccc(NC(=O)C4(C(=O)Nc5ccc(F)cc5)CC4)cc3F)ccnc2cc1OCCCN1CCOCC1 [Foretinib] (partner 0.25 µM)
# Assay: relative viability (nuclei count vs DMSO), 5 days (fraction); higher = more cells survive
# Conditions: first compound 0.01 µM
# Outline: (§1)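 Lung cancer cell lines in 1536-well plates got either a single drug or a fixed anchor-drug dose together with five library-drug doses (not always all listed) in √10 steps, by pin tool, on the day after seeding. Nuclei were counted after 5 days, and relative viability is the treated-to-vehicle ratio of nuclei counts. Values are medians of duplicate plates.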
row,Cell Line,relative viability
1,NCI-H2085,0.781
2,Calu-6,0.825
3,HCC-366,0.961
4,NCI-H1666,0.962
5,NCI-H647,1.02
6,LK-2,0.879
7,NCI-H2126,1.05
8,NCI-H2342,0.878
9,SK-MES-1,0.856
10,H3255,0.974
11,COR-L23,0.954
12,IA-LM,1.06
13,A549,0.773
14,SW 900,0.806
15,NCI-H727,0.988
16,NCI-H1299,1.07
17,NCI-H650,0.961
18,NCI-H1563,0.758
19,ABC-1,1.06
20,NCI-H358,0.705
21,NCI-H661,0.982

# Same assay, conditions: first compound 0.03162 µM
row,Cell Line,relative viability
1,NCI-H1623,0.937
2,NCI-H838,1.03
3,NCI-H1650,1.09
4,EBC-1,0.107
5,NCI-H1703,0.34
6,NCI-H1993,0.906
7,NCI-H2087,1.11
8,PC-14,0.922
9,LCLC-103H,0.597
10,NCI-H596,0.833
11,NCI-H2228,1.04
12,EMC-BAC-2,1.05
13,NCI-H2085,0.897
14,Calu-6,0.922
15,HCC-366,0.848
16,NCI-H1666,0.919
17,NCI-H647,1.25

row,Cell Line,relative viability
1,LK-2,1.17
2,NCI-H2126,1.08
3,NCI-H2342,1.02
4,SK-MES-1,1.13
5,H3255,0.897
6,COR-L23,1.14
7,IA-LM,1.09
8,A549,1.01
9,SW 900,0.87
10,NCI-H727,0.912
11,NCI-H1299,1.11
12,NCI-H650,0.913
13,NCI-H1563,0.93
14,ABC-1,0.951
15,NCI-H358,0.756
16,NCI-H661,1.06

# Same assay, conditions: first compound 0.1 µM
row,Cell Line,relative viability
1,NCI-H1623,0.628
2,NCI-H838,1.01
3,NCI-H1650,0.9
4,EBC-1,0.12
5,NCI-H1703,0.349
6,NCI-H1993,0.557
7,NCI-H2087,0.859
8,PC-14,0.995
9,LCLC-103H,0.77
10,NCI-H596,1.04
11,NCI-H2228,0.812
12,EMC-BAC-2,0.612
13,NCI-H2085,0.88
14,Calu-6,0.921
15,HCC-366,0.442
16,NCI-H1666,0.695

row,Cell Line,relative viability
1,NCI-H647,1.21
2,LK-2,0.933
3,NCI-H2342,0.493
4,SK-MES-1,0.719
5,H3255,0.603
6,COR-L23,1
7,IA-LM,0.865
8,A549,0.753
9,SW 900,0.725
10,NCI-H1299,1.11
11,NCI-H650,0.682
12,NCI-H1563,0.785
13,ABC-1,0.65
14,NCI-H358,0.447
15,NCI-H661,0.889

# Same assay, conditions: first compound 0.3162 µM
row,Cell Line,relative viability
1,NCI-H1623,0.658
2,NCI-H838,0.841
3,NCI-H1650,0.431
4,EBC-1,0.102
5,NCI-H1703,0.268
6,NCI-H1993,0.733
7,NCI-H2087,0.46
8,PC-14,0.934
9,LCLC-103H,0.636
10,NCI-H596,0.799
11,NCI-H2228,0.519
12,EMC-BAC-2,0.302
13,NCI-H2085,0.667
14,Calu-6,0.41
15,HCC-366,0.12
16,NCI-H1666,0.42
17,NCI-H647,0.654

row,Cell Line,relative viability
1,LK-2,0.912
2,NCI-H2126,0.712
3,NCI-H2342,0.359
4,SK-MES-1,0.704
5,H3255,0.674
6,COR-L23,0.744
7,IA-LM,0.975
8,A549,0.236
9,SW 900,0.596
10,NCI-H727,0.732
11,NCI-H1299,0.997
12,NCI-H650,0.606
13,NCI-H1563,0.609
14,ABC-1,0.5
15,NCI-H358,0.184
16,NCI-H661,0.845

# Same assay, conditions: first compound 1 µM
row,Cell Line,relative viability
1,NCI-H1623,0.298
2,NCI-H838,0.35
3,NCI-H1650,0.281
4,EBC-1,0.107
5,NCI-H1703,0.343
6,NCI-H1993,0.51
7,NCI-H2087,0.221
8,PC-14,0.832
9,LCLC-103H,0.502
10,NCI-H596,0.596
11,NCI-H2228,0.204
12,EMC-BAC-2,0.238
13,NCI-H2085,0.33
14,Calu-6,0.234
15,HCC-366,0.0524
16,NCI-H1666,0.461
17,NCI-H647,0.271

row,Cell Line,relative viability
1,LK-2,0.401
2,NCI-H2126,0.394
3,NCI-H2342,0.298
4,SK-MES-1,0.433
5,H3255,0.457
6,COR-L23,0.33
7,IA-LM,0.494
8,A549,0.068
9,SW 900,0.278
10,NCI-H727,0.606
11,NCI-H1299,0.811
12,NCI-H650,0.288
13,NCI-H1563,0.604
14,ABC-1,0.271
15,NCI-H358,0.134
16,NCI-H661,0.53

# Compound: COc1cc([C@@H]2c3cc4c(cc3[C@@H](O[C@@H]3O[C@@H]5CO[C@@H](C)O[C@H]5[C@H](O)[C@H]3O)[C@H]3COC(=O)[C@H]23)OCO4)cc(OC)c1O [Etoposide] + CC1(C)CCC(c2ccc(Cl)cc2)=C(CN2CCN(c3ccc(C(=O)NS(=O)(=O)c4ccc(N[C@H](CCN5CCOCC5)CSc5ccccc5)c(S(=O)(=O)C(F)(F)F)c4)cc3)CC2)C1 [Navitoclax] (partner 0.5 µM)
# Assay: as above
# Conditions: first compound 0.01 µM
# Outline: as §1
row,Cell Line,relative viability
1,NCI-H838,1.09
2,NCI-H1650,1.25
3,EBC-1,0.319
4,NCI-H1703,1.04
5,NCI-H1993,0.921
6,PC-14,0.984
7,NCI-H596,0.977
8,NCI-H2228,0.842
9,EMC-BAC-2,1.08
10,NCI-H2085,1.16
11,Calu-6,0.883
12,HCC-366,0.923
13,NCI-H1666,0.788
14,NCI-H647,0.936
15,LK-2,0.815
16,NCI-H2126,0.893
17,SK-MES-1,1.14
18,H3255,0.538
19,COR-L23,0.935
20,IA-LM,0.595
21,HCC-44,0.845
22,A549,1.25
23,NCI-H727,0.439
24,NCI-H1299,1.06
25,NCI-H1792,0.716

# Same assay, conditions: first compound 0.03162 µM
row,Cell Line,relative viability
1,NCI-H838,1.14
2,NCI-H1650,1.19
3,EBC-1,0.41
4,NCI-H1703,1.12
5,NCI-H1993,1.08
6,NCI-H2087,1.05
7,PC-14,1.05
8,NCI-H596,0.989
9,NCI-H2228,0.934
10,EMC-BAC-2,1.05
11,NCI-H2085,1.06
12,Calu-6,0.722
13,HCC-366,1.05
14,NCI-H1666,0.875
15,NCI-H647,1.18
16,LK-2,0.945
17,NCI-H2126,0.917
18,SK-MES-1,1.23
19,H3255,0.556
20,COR-L23,1.02
21,IA-LM,0.742
22,HCC-44,1.05
23,A549,1.04
24,NCI-H727,0.553
25,NCI-H1299,1.02
26,NCI-H1792,0.59

# Same assay, conditions: first compound 0.1 µM
row,Cell Line,relative viability
1,NCI-H838,1.19
2,NCI-H1650,0.885
3,EBC-1,0.254
4,NCI-H1703,0.575
5,NCI-H1993,0.856
6,NCI-H2087,0.941
7,PC-14,1.19
8,NCI-H2228,0.849
9,EMC-BAC-2,0.83
10,NCI-H2085,1.11
11,Calu-6,0.828
12,HCC-366,0.864
13,NCI-H1666,0.549
14,NCI-H647,0.961
15,LK-2,0.643
16,NCI-H2126,0.49
17,SK-MES-1,0.913
18,H3255,0.334
19,COR-L23,1.07
20,IA-LM,0.731
21,HCC-44,1.1
22,A549,0.46
23,NCI-H727,0.369
24,NCI-H1299,1.05
25,NCI-H1792,0.507

# Same assay, conditions: first compound 0.3162 µM
row,Cell Line,relative viability
1,NCI-H838,0.705
2,NCI-H1650,0.353
3,EBC-1,0.378
4,NCI-H1703,0.527
5,NCI-H1993,0.758
6,NCI-H2087,0.727
7,PC-14,0.906
8,NCI-H596,0.87
9,NCI-H2228,0.473
10,EMC-BAC-2,0.297
11,NCI-H2085,0.67
12,Calu-6,0.418
13,HCC-366,0.306
14,NCI-H1666,0.353
15,NCI-H647,0.261
16,LK-2,0.498
17,NCI-H2126,0.769
18,SK-MES-1,0.532
19,H3255,0.348
20,COR-L23,0.554
21,IA-LM,0.616
22,HCC-44,0.882
23,A549,0.157
24,NCI-H727,0.488
25,NCI-H1299,0.946
26,NCI-H1792,0.567

# Same assay, conditions: first compound 1 µM
row,Cell Line,relative viability
1,NCI-H838,0.338
2,NCI-H1650,0.309
3,EBC-1,0.225
4,NCI-H1703,0.307
5,NCI-H1993,0.533
6,NCI-H2087,0.264
7,PC-14,0.652
8,NCI-H596,0.642
9,NCI-H2228,0.138
10,EMC-BAC-2,0.161
11,NCI-H2085,0.354
12,Calu-6,0.213
13,HCC-366,0.0332
14,NCI-H1666,0.263
15,NCI-H647,0.241
16,LK-2,0.267
17,NCI-H2126,0.448
18,SK-MES-1,0.211
19,H3255,0.14
20,COR-L23,0.236
21,IA-LM,0.431
22,HCC-44,0.496
23,A549,0.0716
24,NCI-H727,0.319
25,NCI-H1299,0.785
26,NCI-H1792,0.394
